Experiments:
[1] = system: MDA-MB-231 parent or DTC; experiment: Glucose uptake (2-NBDG) determined by FACS; assay type: cell-based; settings: sub-lethal docetaxel (25 nM), MDA-MB-231
Protocol: MDA-MB-231 (ATCC), MDA-MB-468 and 4T-1 mammary carcinoma cells (ATCC) were cultured in DMEM containing 10% Fetal Bovine Serum (FBS) at 37 C and 5% CO2. DU145 and DU145-TxR were provided by A. Mizokami^63 and cultured in DMEM containing 10% FBS, resistant line included 100 nM paclitaxel in the culture media. During treatments with chemotherapeutics, cells were grown to semi-confluence and treated with indicated concentrations of chemotherapy in serum-containing medium for indicated time points. When small molecule inhibitors were included in treatments, they were added simultaneously with chemotherapy. For siRNA gene knockdown, cells were transfected with silencer-select siRNA plasmids (Ambion, Invitrogen, Grand Island, N.Y.) pan-CD44(1) (s2682) panCD44(2) (s2681), siHIF1A (s6539) using lipofectamine 2000 (Invitrogen, Carlsbad Calif.) following manufacturer protocol and cultured for 72 hours prior to treatment. Scrambled siRNA was used as a control. For chemotherapy treatment experiments: Cancer cells were plated at a density of 0.5-1×10^5 cells/ml and allowed to adhere for 24-48 hr. When cells reached ˜70% confluency they were treated with cytotoxics at indicated concentrations for 24-48 hours and utilized for subsequent assays. For experiments in which a shorter incubation was used (i.e. 15 min-4 hours) fresh media was added 24 hours prior to addition of chemotherapy suspended to stock concentration in PBS. For generation of DTC: Cells were treated for 48 hours with chemotherapy. Following washes with PBS, adherent cells were trypsinized and re-plated at a density of 1.5-2×10^5 cells/ml and cultured in serum-containing medium. After 24 hours incubation, floating cells were removed and remaining cells were washed with 1× PBS and considered as chemotherapy-tolerant cells. A population of drug naïve parent cells were always cultured alongside DTC and fresh media was added at every interval that experimental population (DTC) received fresh media.
In vitro detection of glucose uptake was performed using 2-(N-7-Nitrobenz-2-oxa-1,3-diazol-4-yl)Amino)-2-Deoxyglucose (2-NBDG) (Invitrogen, Carlsbad Calif.), dissolved in DMSO to 50 mM. Cells were pre-treated with kinase inhibitors or vehicle for 3 hours in glucose- and phenol red-free media before addition of 50 μM 2-NBDG and subsequently read by FACS ex/em 488/535 nm. ROS was determined by pre-loading cells with CM-DCFDA (1 μM), washed 2 times with PBS and subsequently treated with H2O2 or vehicle; when kinase inhibitors were included in treatment, cells were first incubated with inhibitor for 3 hours prior to CM-DCFDA loading. Fluorescence was then determined by FACS ex/em 488/535 nm. For the following assays, cells were trypsinized and counted by Nexcelom cell counter (Lawrence, Mass.) prior to being subjected to analysis in order to achieve a quantitative value per cell: Reduced glutathione was determined using a colorimetric glutathione recycling system by DTNB following manufacturer protocol (Biovision, Milpitas Calif.). ATP analysis was performed using the ATP colorimetric analysis kit (Biovision) according to manufacturer protocol. Reductive stress was detected using the Enzo nitroreductase hypoxia kit (Enzo Life Sciences, Ann Arbor Mich.) following manufacturer protocol and visualized by fluorescent microscopy; a set of non-docetaxel-treated control cells loaded with fluorescent probe were compared against docetaxel-treated cells to derive a % redox stress increase which was calculated as fluorescence intensity of nitroreductase probe per cell and expressed as increase from vehicle. Protein synthesis was measured by two means 1. L-azidohomoalanine amino acid analog of methionine containing an azide moiety was added to cultured cells (parent or DTC) for 3 hours which is incorporated into proteins during active protein synthesis. […]

[2] = system: tumor tissue; experiment: Whole tissue glucose levels from tumor homogenate after intratumoral injection; assay type: in vivo, mice; settings: docetaxel intratumoral injection, within 12 hours post-administration
Protocol: (§1) 1 million 4T-1 mouse mammary carcinoma cells suspended in 100 μL PBS were injected per left flank of 5-6 week old Balb/C (heterotopic) or mammary fat pad (orthotopic). Docetaxel (DTX) was dissolved in pure Ethanol at a concentration of 50 mg/ml mixed 1:1 with Polysorbate 80 (Tween 80) and brought to a final working concentration with PBS. Tumor volumes were assessed by the following formula: (Width×Width×length)/2 and values were utilized to calculate tumor specific growth rate (SGR) by the algorhythm (ln [V2/V1]/[t2−t1)] where V=volume and t=time in days^64. For in vivo analysis of 2-NBDG uptake, mice were treated as indicated (i.e. Docetaxel intratumoral or intravenously) and monitored until tumors reached ˜300 mm^3. Subsequently, mice were administered a 10 mg/kg i.v. injection of 2-NBDG 2 hours prior to sacrificing and harvesting tumors for confocal microscopic analysis by frozen section (described below). […] Glucose quantitation (mg/dL) was measured using the onetouch lifescan glucose monitor (Life Scan, Inc. Militipas, Calif.) by calculating mg of glucose per volume of tissue homogenate (in PBS) and normalized as a ratio of mg/dL of glucose to mg of tissue homogenized. Typically, >250 mg of tissue was homogenized in 50 μL of PBS to achieve a readable output.

[3] = system: CD44 and GLUT1; experiment: Confocal microscopy of CD44 and GLUT-1 in residual tumors, orthotopic syngeneic mammary carcinoma model (4T-1); assay type: in vivo, mice; settings: 72 hours after docetaxel at MTD (10 mg/kg i.v.) vs vehicle
Protocol: as §1, with “output. […]” for “output.”

## CC(=O)O[C@@]12CO[C@@H]1C[C@H](O)[C@@]1(C)C(=O)[C@H](O)C3=C(C)[C@@H](OC(=O)[C@H](O)[C@@H](NC(=O)OC(C)(C)C)c4ccccc4)C[C@@](O)([C@@H](OC(=O)c4ccccc4)[C@H]21)C3(C)C [docetaxel]
[1]
  time point at which augmented glucose uptake was observed: 24 h
[2]
  whole tissue glucose levels in tumor: significantly higher
[3]
  expression of CD44 and GLUT1 in residual tumors: enhanced expression of both CD44 and GLUT1
